Source: US20220127281A1, “HETEROARYL COMPOUNDS THAT INHIBIT G12C MUTANT RAS PROTEINS” (AstraZeneca AB, priority 2017, published 2022)
Where two headings read alike, the source gives them in different places. Values belong to the molecule of their own block, whether it stands above or below them.

Key:
[1] = target: T1, GDP loaded biotinylated KRas^G12C protein (Homo sapiens, UniProt P01116, G12C); test: KRasG12C functional assay; format: biochemical; conditions: HTRF FRET readout of SOS-mediated nucleotide exchange and GST-Raf RBD binding, samples incubated for 4 hrs
T1 construct: biotin (biotinylated); made in house
Protocol: KRasG12C Functional Assay
All enzyme and substrate solutions were prepared in assay buffer containing 20 mM HEPES (pH 7.5), 5 mM MgCl2, 150 mM NaCl, and 0.01% Tween 20. […] In a separate mix 20 nM GST-Raf Ras binding domain (GST-Raf RBD, purified in house) and 4 μg/ml anti-GST XL665 antibody (Cisbio) was prepared in assay buffer containing 50 mM Potassium Fluoride and 0.05 mg/ml BSA and equilibrated for 4 hours before adding 0.6 μM Guanosine 5′-[γ-thio]triphosphate (GTPγS, Sigma) and 0.08 μM SOS (purified in house). 5 μl of the GST-RAF RBD mix was then dispensed into each well of the assay plate. […] This is detected simultaneously via the specific binding interaction between active GTPγS KRas^G12C with GST-Raf RBD which brings the europium and XL665 into close proximity enabling an increased FRET signal to be detected on a Pherastar (BMG) plate reader equipped with the HTRF filter module. […] IC50 values were calculated from normalised dose-response response FRET data curve fitted in Genedata screener (Basel, Switzerland).

[2] = target: T1, GDP loaded biotinylated KRas^G12C protein; test: KRasG12C mass spectrometry adducting assay; format: binding; conditions: test compound final concentration 10 μM, 4 μM KRasG12C, react for 4 hours
Protocol: KRasG12C Mass Spectrometry Adducting Assay
Enzyme solutions were prepared in assay buffer containing 20 mM HEPES (pH 7.5), 5 mM MgCl2, and 150 mM NaCl. […] The plate was sealed before reading on a Xevo G2 QTOF (Waters) and Acquity LC system (Waters). […] Blank samples were run in between each test sample.
Data was analysed in Mass Lynx software (Waters), the Total ion count (TIC) trace was used and the eluted protein peak data combined. Using the combined spectrum the data was deconvoluted using MaxEnt1 method. The peak area for apo-protein KRas^G12C (APO) and KRAS+relative cmpd mass (adduct) were measured, and a percentage adduct was calculated using the following calculation:
Percent adduct=100*(area of adduct peak/(sum of APO+adduct peaks)

[3] = KRasG12C functional assay IC50 value (μM)
[4] = read-out: KRasG12C functional assay IC50 value

T1 sequence (P01116 1-188 isoform P01116-2 G12C): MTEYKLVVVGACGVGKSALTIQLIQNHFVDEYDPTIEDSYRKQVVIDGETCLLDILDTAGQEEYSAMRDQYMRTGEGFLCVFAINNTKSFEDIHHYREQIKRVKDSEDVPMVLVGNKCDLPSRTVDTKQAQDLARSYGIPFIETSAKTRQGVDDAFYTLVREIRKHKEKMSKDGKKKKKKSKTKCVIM

- IC50 [1, 4]: 0.097 µM
- KRasG12C M.S. Binding Mean adduct % [2]: 92%
Compound: C=CC(=O)N1CCN2c3ncnc4cc(-c5c(O)cccc5F)c(Cl)c(c34)OC[C@@H]2C1 (single isomer, unassigned) [Example 11]

- IC50 [1, 4]: 0.226 µM
- KRasG12C M.S. Binding Mean adduct % [2]: 83%
Compound: C=CC(=O)N1CCN2c3nc(N4CCOCC4)nc4cc(-c5c(C)ccc6[nH]ncc56)c(Cl)c(c34)OC[C@@H]2C1 (single isomer, unassigned) [Example 71]

- IC50 [1, 4]: 39.4 µM
- KRasG12C M.S. Binding Mean adduct % [2]: 5%
Compound: C=CC(=O)N1CCN2c3nc(N4CCOCC4)nc4cc(-c5c(C)ccc6[nH]ncc56)c(Cl)c(c34)OC[C@@H]2C1 (single isomer, unassigned) [Example 72]

- IC50 [1, 4]: 1.9 µM
- KRasG12C M.S. Binding Mean adduct % [2]: 8%
Compound: C=CC(=O)N1CCN2c3nc(NC4CCN(C5CC5)CC4)nc4cc(-c5c(C)ccc6[nH]ncc56)c(Cl)c(c34)OC[C@@H]2C1 (single isomer, unassigned) [Example 73]

- IC50 [1, 4]: 0.012 µM
- KRasG12C M.S. Binding Mean adduct % [2]: 94%
Compound: C=CC(=O)N1CCN2c3nc(NC4CCN(C5CC5)CC4)nc4cc(-c5c(C)ccc6[nH]ncc56)c(Cl)c(c34)OC[C@@H]2C1 (single isomer, unassigned) [Example 74]

- IC50 [1, 4]: 22.4 µM
- KRasG12C M.S. Binding Mean adduct % [2]: 0%
Compound: C=CC(=O)N1CCN2c3nc(N4CC(N(C)C)C4)nc4cc(-c5c(C)ccc6[nH]ncc56)c(Cl)c(c34)OC[C@@H]2C1 (single isomer, unassigned) [Example 76]

- IC50 [1, 4]: 0.021 µM
- KRasG12C M.S. Binding Mean adduct % [2]: 100%
Compound: C=CC(=O)N1CCN2c3nc(N4CC(N(C)C)C4)nc4cc(-c5c(C)ccc6[nH]ncc56)c(Cl)c(c34)OC[C@@H]2C1 (single isomer, unassigned) [Example 77]

Second part, the molecule before the results:

Compound: C=CC(=O)N1CCN2c3ncnc4cc(-c5c(C)ccc6[nH]ncc56)c(Cl)c(c34)OC[C@@H]2C1 (single isomer, unassigned) [Example 2]
- IC50 [1, 3]: 38.9 µM
- KRasG12C M.S. Binding Mean adduct % [2]: 2%

Compound: C=CC(=O)N1CCN2c3ncnc4cc(-c5c(C)ccc6[nH]ncc56)c(Cl)c(c34)OC[C@@H]2C1 (single isomer, unassigned) [Example 3]
- IC50 [1, 3]: 0.082 µM
- KRasG12C M.S. Binding Mean adduct % [2]: 96%

Compound: C=CC(=O)N1CCN2c3ncnc4cc(-c5c(O)cccc5F)c(Cl)c(c34)OC[C@@H]2C1 (single isomer, unassigned) [Example 10]
- IC50 [1, 4]: 0.244 µM
- KRasG12C M.S. Binding Mean adduct % [2]: 30%

Compound: C=CC(=O)N1CCN2c3ncnc4cc(-c5c(O)cccc5Cl)c(Cl)c(c34)OC[C@@H]2C1 (single isomer, unassigned) [Example 15]
- IC50 [1, 4]: 22.7 µM
- KRasG12C M.S. Binding Mean adduct % [2]: 12%

Compound: C=CC(=O)N1CCN2c3ncnc4cc(-c5c(O)cccc5Cl)c(Cl)c(c34)OC[C@@H]2C1 (single isomer, unassigned) [Example 16]
- IC50 [1, 4]: 0.032 µM
- KRasG12C M.S. Binding Mean adduct % [2]: 100%

Compound: C=CC(=O)N1CCN2c3ncnc4cc(-c5c(O)cccc5OC)c(Cl)c(c34)OC[C@@H]2C1 (single isomer, unassigned) [Example 17]
- IC50 [1, 4]: > 100 µM
- KRasG12C M.S. Binding Mean adduct % [2]: 0%

Compound: C=CC(=O)N1CCN2c3ncnc4cc(-c5c(O)cccc5OC)c(Cl)c(c34)OC[C@@H]2C1 (single isomer, unassigned) [Example 18]
- IC50 [1, 4]: 0.868 µM
- KRasG12C M.S. Binding Mean adduct % [2]: 100%

Compound: C=CC(=O)N1CCN2c3ncnc4cc(-c5c(O)cccc5C#N)c(Cl)c(c34)OC[C@@H]2C1 (single isomer, unassigned) [Example 19]
- IC50 [1, 4]: 41.8 µM
- KRasG12C M.S. Binding Mean adduct % [2]: 0%

Compound: C=CC(=O)N1CCN2c3ncnc4cc(-c5c(O)cccc5C#N)c(Cl)c(c34)OC[C@@H]2C1 (single isomer, unassigned) [Example 20]
- IC50 [1, 4]: 0.191 µM
- KRasG12C M.S. Binding Mean adduct % [2]: 100%

Compound: C=CC(=O)N1CCN2c3ncnc4c(F)c(-c5c(O)cccc5F)c(Cl)c(c34)OC[C@@H]2C1 [Example 69, 1-((8aS)-6-chloro-4-fluoro-5-(2-fluoro-6-hydroxyphenyl)-8a,9,11,12-tetrahydro-pyrazino[2′,1′:3,4][1,4]oxazepino[5,6,7-de]quinazolin-10 (8H)-yl)prop-2-en-1-one]
- IC50 [1, 4]: 0.029 µM
